The values below come from patent publication US8623429B2, “Stabilized anthocyanin compositions” (Omnica GmbH, priority 2007, dated 2014).

Type in all cases: physicochemical
Data set [1] in a line: Example 6: stability of free anthocyanidins delphinidin and malvidin at 37° C., pH 7.0, with/without GSH (HPLC). To be noted: pH 7.0, 37° C. The method, then: Sample a) 5 mg delphinine chloride (0.015 mmol) was transferred into a 100 ml flask, dissolved in 1 ml methanol and filled to volume with sodium phosphate buffer (5% [w/w], pH=7.0). The sample was kept with stirring at 37° C. Samples were taken immediately after dissolution, after 15 minutes, 1, 2, and 3 hours of incubation. The samples were acidified with formic acid to pH=1.0 and analyzed by HPLC.
Sample b) 5 mg malvidin chloride (0.014 mmol) was transferred into a 100 ml flask, dissolved in 1 ml methanol and filled to volume with sodium phosphate buffer (5% [w/w], pH=7.0). The sample was kept with stirring at 37° C. Samples were taken immediately after dissolution and at 1, 2, and 3 hours of incubation. The samples were acidified with formic acid to pH=1.0 and analyzed by HPLC.
Sample c) 5 mg delphinidine chloride (0.015 mmol) and 10 mg GSH (0.032 mmol) were transferred into a 100 ml flask, dissolved in 1 ml methanol and filled to volume with sodium phosphate buffer (5% [w/w], pH=7.0). The sample was kept with stirring at 37° C. Samples were taken at 15 minutes after dissolution and after 1, 2 and 3 hours of incubation. The samples were acidified with formic acid to pH=1.0 and analyzed by HPLC.
Sample d) 5 mg malvidin chloride (0.014 mmol) and 10 mg GSH (0.032 mmol) were transferred into a 100 ml flask, dissolved in 1 ml methanol and filled to volume with sodium phosphate buffer (5% [w/w], pH=7.0). The sample was kept with stirring at 37° C. Samples were taken 15 minutes after dissolution and after 1, 2 and 3 hours of incubation. The samples were acidified with formic acid to pH=1.0 and analyzed by HPLC.
(§1) Samples were prepared as outlined below in HPLC Analytical Method. Test stability samples were immediately acidified (to block degradation) and injected undiluted following the detailed description provided below.

Data set [2] can be described thus: Example 1: stability of bilberry extract anthocyanosides, 4 hours at 37° C., pH 7.0, with/without DHLA or GSH (HPLC).
Procedure: (0.048 mmol anthocyanosides expressed as cyanidin-3-O-glucoside) were added to a 100 ml flask and filled to volume with sodium phosphate buffer (5% [w/w], pH=7.0), and stirred until dissolution was complete. A 1 ml sample was taken immediately and acidified with formic acid to pH=1.0 and analyzed by HPLC for the content of anthocyanosides (Fresh Sample). The remaining solution was kept for 4 hours at 37° C. (water bath) with stirring. Thereafter another sample (Blank sample), representing unprotected degradation, was taken and acidified.
(0.048 mmol expressed as cyanidin-3-O-glucoside) were then added and the flask was filled to volume with sodium phosphate buffer (5% [w/w], pH=7.0) and kept for 4 hours at 37° C. (water bath) with stirring.
Quantitation: External standardization based on linear regression analysis. The response factors of all anthocyanosides separated is quantitified against cyanidin-3-O-glucoside.
Test solutions from incubation experiments (with/without cells and with/without stabilizing agents) were used for analysis after stabilization of anthocyanosides with formic acid. Samples were cleared by filtration prior to injection on to HPLC-system.
Data set [3] is described as follows: Example 2: degradation over time of selected bilberry anthocyanosides at 37° C., pH 7.0, with/without GSH (HPLC). To be noted: pH 7.0, 37° C.; for %-residual anthocyanosides (% left): 4.30 hours. As to the method: Sample a) 60 mg bilberry extract [37% anthocyanosides] (0.048 mmol expressed as cyanidin-3-O-glucoside) were added to a 100 ml, filled to volume with sodium phosphate buffer (5% [w/w], pH=7.0) and stirred until dissolution was complete. A 1 ml sample was immediately taken and acidified with formic acid to pH=1.0 and analyzed by HPLC for the content of anthocyanosides. The remaining solution was kept at 37° C. (water bath) with stirring and additional 1 ml samples (Blank Samples), representing unprotected degradation, were sampled every 15 minutes. The samples were analyzed for selected anthocyanosides by HPLC.
Sample b) 20 mg reduced L-glutathione (0.065 mmol) were added to a 100 ml flask with 60 ml sodium phosphate buffer (5% [w/w], pH=7.0) and stirred until dissolution was complete. 60 mg bilberry extract [37% anthocyanosides] (0.048 mmol expressed as cyanidin-3-O-glucoside) were added and the flask was filled to volume with sodium phosphate buffer (5% [w/w], pH=7.0) and kept at 37° C. (water bath) with stirring. Every 15 minutes, 1 ml samples were taken and analyzed for selected anthocyanosides by HPLC.
as §1
HPLC Analytical Method (Materials, Instruments and Methods): […]

The nature of data set [4]: Example 9: stability of bilberry extract anthocyanosides, 4 hours at 37° C., pH 7.0, with/without L-cysteine. As to the method: Sample a) 60 mg bilberry extract [37% anthocyanosides] (0.048 mmol anthocyanosides expressed as cyanidin-3-O-glucoside) were added to a 100 ml flask with 60 ml sodium phosphate buffer (5% [w/w], pH=7.0), and stirred until dissolution was complete. A 1 ml sample was taken immediately and acidified with formic acid to pH=1.0 and analyzed by HPLC for the content of anthocyanosides (Fresh Sample). The remaining solution was kept for 4 hours at 37° C. (water bath) with stirring. Thereafter another sample (Blank sample), representing unprotected degradation, was taken and acidified.
Sample b) 20 mg L-cysteine […] were added to a 100 ml flask with 60 ml sodium phosphate buffer (5% [w/w], pH=7.0) and stirred until dissolution was complete. 60 mg bilberry extract [37% anthocyanosides] (0.048 mmol expressed as cyanidin-3-O-glucoside) were then added to the flask and stir to fully dissolve, then kept for 4 hours at 37° C. (water bath) with stirring.
After 4 hours, samples were taken and acidified immediately with formic acid to pH=1.0 and analyzed by HPLC for the content of anthocyanosides. Degradation is expressed as decrease in peak area of individual peaks (calculated as % left after 4 hours).
Samples were prepared as outlined above in the HPLC Analytical Method. Test stability samples were immediately acidified (to block degradation) and injected undiluted following the detailed description provided below.

Setting [5] is: 20 mg reduced L-glutathione, pH 7.0, 37° C., 4 hours.
[6] abbreviates: 30 mg dihydrolipoic acid, pH 7.0, 37° C., 4 hours.
The mark [7] stands for this setting: unprotected, pH 7.0, 37° C., 4 hours.

As for `COc1cc(-c2[o+]c3cc(O)cc(O)c3cc2O)cc(OC)c1O.[Cl-]` [Malvidin], the “Peak Area” value in data set [1] (Blank, 0 hours) was determined as 1228; in data set [1] (Blank, 1 hour), 661.6; in data set [1] (Blank, 2 hours), 175.3; in data set [1] (Blank, 3 hours), 56.4; in data set [1] (GSH 10 mg, 1 hour), 530.1; in data set [1] (GSH 10 mg, 2 hours), 263.5. Besides, the “Peak Area” value in data set [1] (GSH 10 mg, 3 hours) worked out at 5.6.
On to `OC[C@H]1O[C@@H](Oc2cc3c(O)cc(O)cc3[o+]c2-c2cc(O)c(O)c(O)c2)[C@H](O)[C@@H](O)[C@H]1O` [Dp-3O-Gal, Delphinidin 3-o-galactoside], for which, in data set [2] (setting [5]), the “% left, GSH (4 hours)” value stood at 50.6%. Also, the “Peak Area, GSH (4 hours)” value in data set [2] (setting [5]) was found to be 331.3. The “% left, DHLA (4 hours)” value in data set [2] (setting [6]) stood at 60.5%. Besides, in data set [2] (setting [6]), the “Peak Area, DHLA (4 hours)” value is 395.8. The “Peak Area, Fresh (0 hours)” value in data set [2] (bilberry extract 60 mg/100 ml sodium phosphate buffer pH 7.0, fresh sample) is reported as 654.4. For the same molecule, the “% left, Blank (4 hours)” value in data set [2] (setting [7]) was found to be 7.8%. For the same molecule, in data set [2] (setting [7]), the “Peak Area, Blank (4 hours)” value came to 50.9. Besides, the “Peak Area” value is 354.36 in data set [3] (Blank Sample, 1:15 h); 226.99 in data set [3] (Blank Sample, 4:15 h); 135.48 in data set [3] (Blank Sample, 4:30 h); 699.51 in data set [3] (Blank sample, 0:00 h); 547.09 in data set [3] (Blank sample, 0:15 h); 603.54 in data set [3] (Blank sample, 0:30 h). Moreover, the “Peak Area” value in data set [3] (Blank sample, 0:45 h) came to 451.09; in data set [3] (Blank sample, 1:00 h), 467.23; in data set [3] (Blank sample, 1:45 h), 401.11; in data set [3] (Blank sample, 2:00 h), 356.25; in data set [3] (Blank sample, 2:15 h), 320.33; in data set [3] (Blank sample, 2:30 h), 262.70. For the same molecule, the “Peak Area” value amounted to 264.07 in data set [3] (Blank sample, 2:45 h); 288.65 in data set [3] (Blank sample, 3:00 h); 289.95 in data set [3] (Blank sample, 3:15 h); 237.41 in data set [3] (Blank sample, 3:30 h); 243.90 in data set [3] (Blank sample, 4:00 h); 674.83 in data set [3] (GSH Protected Sample (20 mg), 0:30 h). In addition, the “Peak Area” value in data set [3] (GSH Protected Sample (20 mg), 1:30 h) turned out to be 618.45; in data set [3] (GSH Protected Sample (20 mg), 2:30 h) it was 528.71; in data set [3] (GSH Protected Sample (20 mg), 3:30 h) it was 553.82; in data set [3] (GSH Protected Sample (20 mg), 4:30 h), 531.62; in data set [3] (GSH Protected Sample (20 mg), 4:45 h), 478.52; in data set [3] (GSH protected sample (20 mg), 0:00 h), 731.12. Also, the “Peak Area” value in data set [3] (GSH protected sample (20 mg), 0:15 h) turned out to be 739.50; in data set [3] (GSH protected sample (20 mg), 0:45 h), 598.57; in data set [3] (GSH protected sample (20 mg), 1:00 h), 652.53; in data set [3] (GSH protected sample (20 mg), 1:15 h), 648.70; in data set [3] (GSH protected sample (20 mg), 1:45 h), 609.47; in data set [3] (GSH protected sample (20 mg), 2:00 h), 583.66. The “Peak Area” value came out at 592.13 in data set [3] (GSH protected sample (20 mg), 2:15 h); 560.24 in data set [3] (GSH protected sample (20 mg), 2:45 h); 562.10 in data set [3] (GSH protected sample (20 mg), 3:00 h); 562.39 in data set [3] (GSH protected sample (20 mg), 3:15 h); 495.67 in data set [3] (GSH protected sample (20 mg), 3:45 h); 563.95 in data set [3] (GSH protected sample (20 mg), 4:00 h). For the same molecule, the “Peak Area” value in data set [3] (GSH protected sample (20 mg), 4:15 h) came to 540.10. In addition, the “%-residual anthocyanosides (% left)” value amounted to 19% in data set [3] (Blank); 65% in data set [3] (GSH-protected); 65% in data set [3] (GSH-protected, listed as delphinidin-3-O-Galactose). In addition, the “Peak Area, Fresh solution” value in data set [4] (bilberry extract 60 mg in buffer pH 7.0, fresh sample) is on record as 654.4. The “% left, L-cysteine 20 mg” value in data set [4] (pH 7.0, 37° C., 4 hours) is 50.6%. Moreover, the “Peak Area, L-cysteine 20 mg” value in data set [4] (pH 7.0, 37° C., 4 hours) is reported as 331.3. Also, in data set [4] (setting [7]), the “% left, Blank” value turned out to be 7.8%. Moreover, in data set [4] (setting [7]), the “Peak Area, Blank” value is recorded as 50.9.
As for `Oc1cc(O)c2cc(O)c(-c3cc(O)c(O)c(O)c3)[o+]c2c1` [Delphinidin], the “Peak Area” value in data set [1] (Blank, 0 hours) is listed as 48.6; in data set [1] (Blank, 0.25 hours), “BLD”; in data set [1] (Blank, 1 hour) it was “BLD”; in data set [1] (Blank, 2 hours) it was “BLD”; in data set [1] (Blank, 3 hours), “BLD”; in data set [1] (GSH 10 mg, 0.25 hours), “BLD”. In addition, the “Peak Area” value was “BLD” in data set [1] (GSH 10 mg, 1 hour); “BLD” in data set [1] (GSH 10 mg, 2 hours); “BLD” in data set [1] (GSH 10 mg, 3 hours).
